From patent US20230072949A1, “NANOMATERIALS FOR TARGETED TREATMENT AND IMAGING OF ANEURYSMAL MICROENVIRONMENT” (The University of North Carolina at Chapel Hill, priority 2020, published 2023)
Where a SMILES comes first, the peptide text is derived from it. Where no end group is shown, it is not given here. The star is where a group is joined. Palmitoyl = CCCCCCCCCCCCCCCC(=O)*; Lauroyl = CCCCCCCCCCCC(=O)*; C16 = C16 lipid tail

Columns and labels:
[1] = Organ distribution of PA (kidney, liver, lung, spleen, aorta) by LSFM; format: in vivo, Sprague Dawley rats; conditions: 2 hours post injection (FIG. 11)
Protocol: (A) Organ distribution of MMP-2 targeting PA 1 in the kidney, liver, lung, spleen, and aorta of Sprague Dawley rats 2 hours post injection. White color represents autofluorescence and red to yellow represents TAMRA-labeled PA. (B) Plotted mean data of the ratio of PA to tissue in each organ.
Targeting specificity of both MMP-2-targeting and elastin-targeting PAs to the aneurysmal aorta, non-aneurysmal suprarenal aorta, and all vital organs is assessed using in vivo imaging system (IVIS), light-sheet fluorescence microscopy (LSFM), and immunofluorescence (IF) microscopy. […] Targeting specificity was determined by measuring pixel count above an assigned threshold. Further, MMP-2 was quantified using IF microscopy and correlated to the amount of MMP-2-targeting PA. When no adverse side effects occurred, the dosage was increased until we achieved saturation of targeting. With this experiment, we confirmed that targeted PA nanomaterials localized to the site of interest and optimal dose for duration studies was determined. Results are shown for 2 hours post PA injection of either 2.5 mg, 5 mg, or 10 mg of MMP-2-targeting PA 1. A higher PA volume to tissue volume ratio is seen in the 5 mg and 10 mg dose than the 2.5 mg dose. The 5 mg dose was selected for further investigation. […]

[2] = tested on: aneurysmal aorta (CaCl2-induced AAA of the infrarenal aorta); experiment: Targeting of PA nanomaterials to aneurysmal tissue in CaCl2-induced AAA rats (LSFM / fluorescence microscopy after intravenous injection); format: in vivo, Sprague Dawley rats; conditions: for targeting to the rat aorta (LSFM images): 2 hours post PA injection (FIG. 8A); for Targeting Capability: Table 1, aneurysm targeting
Source text: We also validated the CaCl2 model, by inducing aneurysms in 10 male and 7 female Sprague Dawley rats. We measured aortic diameter before AAA induction and then at days 14, 21, and 28 after induction using ultrasound. At day 35, we performed an endpoint surgery and measured the diameter of the aorta, perfusion-fixed the rats, and collected tissue. Tissue was cryo-sectioned and assayed for elastin (Verhoeff-Van Gieson (VVG)), calcium (Von Kossa), and MMP-2 (IF) staining. […] There was no significant difference between male and female rats in aortic dilation (data not shown). Further, we found both elastin fragmentation, and robust MMP-2 protein staining in the aortas exposed to CaCl2, with negligible amounts of fragmentation and MMP-2 in the suprarenal aortas from the same animals (FIG. 2 C+F). Fragmentation of elastin and MMP-2 corresponded to regions of the aorta that were calcified (FIG. 2E).
To evaluate the targeting specificity of the targeted PA nanomaterials, we induced AAA in the infrarenal aorta of Sprague Dawley rats by exposure to CaCl2. After 35 days, a period consistent with aneurysm formation, the targeted PA nanomaterials was injected intravenously. We assessed targeting specificity and duration to aneurysmal sites as well as to all vital organs. We also determined optimal concentration, dose, and co-assembly ratios. Controls included rats injected with saline alone, non-targeted PA nanomaterials, and PA nanomaterials bearing a scrambled targeting sequence.
Experimental Design. Dosage and targeting specificity. To evaluate specific localization of targeted PA nanomaterials, AAA is induced in the infrarenal aorta of male and female Sprague Dawley rats by exposure to CaCl2) (FIG. 4 and FIG. 5A). The features of human AAA can be recapitulated in rodent models. Here, we developed and validated a surgical model of AAA, where CaCl2 is applied to the periadventitial surface of the aorta.^4, 18 While no single model perfectly replicates human AAA, similarities between CaCl2-induced AAA and human aneurysms makes this a useful model. […]
Aortic dilation is measured using ultrasound imaging. […]
Targeting specificity of both MMP-2-targeting and elastin-targeting PAs to the aneurysmal aorta, non-aneurysmal suprarenal aorta, and all vital organs is assessed using in vivo imaging system (IVIS), light-sheet fluorescence microscopy (LSFM), and immunofluorescence (IF) microscopy. […] Targeting specificity was determined by measuring pixel count above an assigned threshold. Further, MMP-2 was quantified using IF microscopy and correlated to the amount of MMP-2-targeting PA. […] With this experiment, we confirmed that targeted PA nanomaterials localized to the site of interest and optimal dose for duration studies was determined. […]

| Compound | organ distribution (kidney, liver, lung, spleen, aorta) ([1]; listed as MMP-2-targeting PA 1) | organ distribution (kidney, liver, lung, spleen, aorta) ([1]; listed as MMP-2 targeting PA) | targeting to the rat aorta (LSFM images) [2] | Targeting Capability [2] |
| --- | --- | --- | --- | --- |
| CCCCCCCCCCCCCCCC(=O)N[C@H](C(=O)N[C@H](C(=O)N[C@@H](C)C(=O)N[C@@H](C)C(=O)N[C@@H](CCC(=O)O)C(=O)N[C@@H](CCC(=O)O)C(=O)NCC(=O)NCC(=O)N[C@@H](CCCNC(=N)N)C(=O)NCC(=O)N[C@@H](C)C(=O)N[C@@H](C)C(=O)N1CCC[C@H]1C(=O)N1CCC[C@H]1C(=O)N[C@@H](CCCCN)C(=O)N[C@@H](CCC(N)=O)C(=O)N[C@@H](CCC(=O)O)C(=O)N[C@@H](Cc1ccccc1)C(=O)N[C@@H](CC(C)C)C(=O)N[C@@H](CC(=O)O)C(=O)N[C@H](C(=O)N[C@@H](CCC(=O)O)C(=O)O)[C@@H](C)CC)C(C)C)C(C)C [MMP-2_RGA] (Palmitoyl-VVAAEEGGRGAAPPKQEFLDIE-OH; N-terminus and C-terminus assumed) | predominantly localized to the aorta | predominantly localizes to the aorta | – | – |
| (C16)VVAAEEGGLWMDWVTEKNIN (C16-VVAAEEGGLWMDWVTEKNIN) [MTI-MMP_LWM, MT1-MMP-targeting peptide amphiphile] | – | – | targeting to the rat aorta | Targets aneurysm |
| PLSEWRASYNGGEEAAVVK(C12) (PLSEWRASYNGGEEAAVVK(Lauroyl)) [Fragmented Elastin_PLS, fragmented elastin-targeting peptide amphiphile on E2A2V2K(C12) diluent backbone] | – | – | targeting to the rat aorta | Does not target |
